Legend:
LLC cells = experiment: LDH release cytotoxicity assay against LLC cells; settings: Mdivi-1 10 μM, 10:1
Experimental: Cytotoxicity assay. Lung IMs from the PBS vs WGP-trained mice were sorted and co-cultured with LLC cells at different ratios in a 96-well plate. The plates were then incubated at 37° C. with 5% CO2 for 12-16 h. Upon completion of incubation, the supernatants were harvested and assayed for the release of lactate dehydrogenase as per the instructions described in the CyQUANT™ LDH Cytotoxicity Assay Kit (Invitrogen). For the cytotoxicity assay in the presence of Mdivi-1 (10 μM) (Sigma Aldrich), peritoneal macrophages were in vitro trained with PBS or WGP in the presence of Mdivi-1 or DMSO for 6 days. The macrophages were then harvested, counted, and co-cultured with LLC cells at a ratio of 10:1 followed by the lactate dehydrogenase assay for cytotoxicity. In another set of experiments, IMs from the lungs of PBS vs WGP-trained mice were harvested, sorted, and co-cultured with LLC cells (10:1) in the presence of N-acetyl-L-Cysteine (NAC, 1 mM) (Sigma Aldrich) or DMSO and assayed for cytotoxicity.

peritoneal macrophages [1] = experiment: Mitochondrial ROS quantitation (MitoSox Red); assay type: cell-based, mice; settings: Mdivi-1 50 μM and 75 μM
Experimental: Mitochondrial ROS quantitation. Peritoneal macrophages were treated with WGP or S1P in the presence or absence of Mdivi-1 and incubated at 37° C. with 5% CO2 for 24 h. The cells were then harvested, washed with PBS and pelleted by centrifugation at 1600 rpm for 5 min at room temperature. The pellets were then stained with MitoSOX Red dye (5 μM) (Invitrogen) at 37° C. for 15 min. The cells were washed with pre-warmed HBSS followed by another wash with PBS at room temperature. The cells were then stained with viability dye and anti-F4/80 and then acquired by flow cytometry. Flow cytometry for p-Drp-1. Peritoneal macrophages were treated with WGP (25 μg/ml) or S1P (1 μM) and incubated at 37° C. with 5% CO2 for 3-4 h. Following the completion of incubation, the cells were quickly washed with cold PBS to stop the activation. The cells were harvested and washed with PBS. The cells were then fixed with 4% formaldehyde for 15 min at room temperature, washed with PBS and permeabilized using ice-cold 100% methanol on ice for a minimum of 10 min. The cells were then stained with primary antibody (p-Drp1) (Cell Signaling) for 1 hour at room temperature followed by secondary antibody (Anti-rabbit IgG) (Biolegend) for 30 min at room temperature as instructed in the Cell Signaling phospho-stain protocol and analyzed using flow cytometry.

peritoneal macrophages [2] = experiment: Mitochondrial fission, TMRM confocal microscopy; assay type: cell-based, mice; settings: Mdivi-1 10 μM
Experimental: Confocal microscopy. Poly-L-Lysine-treated glass coverslips were added to 12 well plates to which appropriate numbers of macrophages were added along with 2 ml of sterile complete DMEM. Cells were trained with WGP alone or in combination with Mdivi-1 (10 μM) for 7 days as previously described. After 7 days of incubation, the media was removed, and the cells were washed with sterile PBS followed by addition of TMRM dye (Tetramethylrhodamine, methyl ester, Sigma) for 20 min. After incubation, the cells were washed with PBS and fixed with 1 ml of 4% formalin at room temperature for 20-30 min. The cells were washed thrice with PBS and the glass slides were removed carefully with the help of forceps and mounted on the slides using mounting reagents and left overnight to dry at room temperature or stored at 4° C. protecting from the light. The slides were then read using a Nikon Confocal microscope. Mitochondrial fragment lengths were measured by counting at least 100 mitochondria per sample using an Image-J software.

**Q.** `COc1cc(-n2c(=S)[nH]c3ccccc3c2=O)c(Cl)cc1Cl` [Mdivi-1] was tested. Which “effect on cytotoxicity of WGP-trained peritoneal macrophages” value (LLC cells) did it give?
**A.** abrogated WGP-mediated mtROS production (FIG. 14D) and cytotoxicity against tumor cells

**Q.** What about the “effect on WGP-mediated mtROS production” value (peritoneal macrophages [1]) of the same molecule?
**A.** abrogated WGP-mediated mtROS production

**Q.** And the “effect on WGP-induced mitochondrial fragmentation” value (peritoneal macrophages [2])?
**A.** abrogated WGP-induced mitochondrial fragmentation

From US20250025490A1, “INDUCTION OF TRAINED IMMUNITY FOR THE TREATMENT OF HYPERPROLIFERATIVE DISORDERS” (priority 2021, published 2025)
